Values quoted from earlier work as cited in PMC3526234 (Diabetes Care, 2012).

Tested on: patients with diabetic gastroparesis
Conditions: intravenous erythromycin, 10 patients with diabetic gastroparesis

**Q.** For `CC[C@H]1OC(=O)[C@H](C)[C@@H](O[C@H]2C[C@@](C)(OC)[C@@H](O)[C@H](C)O2)[C@H](C)[C@@H](O[C@@H]2O[C@H](C)C[C@H](N(C)C)[C@H]2O)[C@](C)(O)C[C@@H](C)C(=O)[C@H](C)[C@@H](O)[C@]1(C)O` [erythromycin], which “estimated effect relative to placebo on percent retained at 60 min” value is on record?
**A.** 75%
